From US20250161476A1 (REGENERON PHARMACEUTICALS, INC., priority 2020, published 2025)
Where a SMILES comes first, the peptide text is derived from it. [ ]: non-standard residue; d: D form. The star is where a group is joined. Bip(2'-Et,4'-O(CH2)4NH2) = CCc1cc(OCCCCN)ccc1-c1ccc(C[C@H](N)C(=O)O)cc1; Malonyl(2,2-Me2,histaminyl) = CC(C)(C(=O)NCCc1cnc[nH]1)C(=O)*; Nva(5-(3,5-Me2Ph)) = Cc1cc(C)cc(CCC[C@H](N)C(=O)O)c1; Ala(1H-tetrazol-5-yl) = N[C@@H](Cc1nnn[nH]1)C(=O)O; X5 = C[C@]1(C(=O)*)CCN(CCc2cnc[nH]2)C1=O; αMePhe(2-F) = C[C@](N)(Cc1ccccc1F)C(=O)O; Desaminohistidyl = O=C(CCc1c[nH]cn1)*; X3 = CC(C)(C(=O)*)c1ccn[nH]1; X1 = O=C(CCCCCc1cnc[nH]1)*; X2 = CC(C)(C(N)=O)C(=O)*; X4 = CC(C)(C(=O)O)C(=O)*

How the values were obtained:
human GLP1R = human GLP1R (Homo sapiens (Human), UniProt P43220); assay: cAMP responsive luciferase reporter assay, HEK293/CRE-Luc/hGLP1R cells; type: cell-based; conditions: for HEK293/CRE-LUC/hGLP1R S/N: highest RLU / RLU of untreated wells; for HEK293/CRE-LUC/hGLP1R Relative Potency (% P8 EC50) / HEK293/CRE-LUC/hGLP1R Relative Signal:Noise (% P8): relative to P8 of the same experiment
Source text: (§1) To test the activity of GLP1R agonist payloads, GLP1R agonist linker-payloads (LPs), and anti-GLP1R antibody tethered drug conjugates (ATDCs) of the disclosure, a cell-based cAMP responsive luciferase reporter assay was developed. To generate the assay cell line, the firefly luciferase gene was placed under the control of a cAMP response element (CRE) located upstream of a minimal promoter and transfected into HEK293 cells and referred to herein as HEK293/CRE-Luc cells.
(§2) Three-fold serial dilutions of free payloads or LPs were prepared in 100% DMSO, transferred to fresh assay media, and added to the cells at a final constant DMSO concentration of 0.2%. The last well in the plate served as a blank control containing only the assay media and 0.2% DMSO (untreated well) and was plotted as a continuation of the 3-fold serial dilution. Four to six hours later, luciferase activity was determined after the addition of One-Glo™ reagent (Promega, Cat #E6130) to each well. Relative light units (RLUs) were measured on an Envision luminometer (PerkinElmer) and EC50 values were determined using a four-parameter logistic equation over a 12-point dose response curve (GraphPad Prism). The signal to noise (S/N) was determined by taking the ratio of the highest RLU on the dose response curve to the RLU in the untreated wells.
GLP1R agonist linker payloads were conjugated to anti-hGLP1R antibodies via N-terminal heavy or light chain Q tags. Several resulting anti-GLP1R antibody tethered drug conjugates (ATDCs) were tested for activity in the HEK293/CRE-Luc/hGLP1R reporter assay as described above for the free GLP1R payload and linker-payload agonists.

HEK293/CRE-Luc cells = assay: cAMP responsive luciferase reporter assay, HEK293/CRE-Luc cells (no hGLP1R expression); type: cell-based, human
Source text: as §1, §2

[1] = Plasma stability of payloads and linker-payloads, human plasma; type: in vitro ADME; conditions: for half-life at 2 µM: human, pooled plasma, pH 7.4, payload properties table, species not given, read-out: Plasma stability t½ (converted)
Procedure: The plasma stability of payloads and linker payloads of the disclosure were measured. For the assay, pooled frozen plasma (human, mouse or monkey) was thawed in cold water or a 37° C. water bath prior to experiment. Plasma was centrifuged at 4000 rpm for 5 min if any clots were observed, they were subsequently removed. If required, the pH was adjusted to 7.4±0.1. For the preparation of compounds and positive controls, a 1 mM intermediate solution was prepared by diluting 10 μL of their stock solution with 90 μL DMSO; a 1 mM intermediate solution of the positive control (Propantheline) was prepared by diluting 10 μL of its stock solution with 90 μL ultrapure water. […] 98 μL of plasma was spiked with 2 μL of dosing solution (100 μM) to achieve the final concentration of 2 μM in duplicate. Samples were then incubated at 37° C. in a water bath. […] At each time point, 400 μL of stop solution (200 ng/mL tolbutamide plus 200 ng/mL labetalol in 50% ACN/MeOH) was added to precipitate protein and mixed thoroughly. Sample plates were then centrifuged at 4,000 rpm for 10 min. An aliquot of supernatant (50 μL) was transferred from each well and mixed with 100 μL ultra-pure water. The samples were then shaken at 800 rpm for approximately 10 min before submitting for LC-MS/MS analysis.

Chain of human GLP1R (P43220 24-463): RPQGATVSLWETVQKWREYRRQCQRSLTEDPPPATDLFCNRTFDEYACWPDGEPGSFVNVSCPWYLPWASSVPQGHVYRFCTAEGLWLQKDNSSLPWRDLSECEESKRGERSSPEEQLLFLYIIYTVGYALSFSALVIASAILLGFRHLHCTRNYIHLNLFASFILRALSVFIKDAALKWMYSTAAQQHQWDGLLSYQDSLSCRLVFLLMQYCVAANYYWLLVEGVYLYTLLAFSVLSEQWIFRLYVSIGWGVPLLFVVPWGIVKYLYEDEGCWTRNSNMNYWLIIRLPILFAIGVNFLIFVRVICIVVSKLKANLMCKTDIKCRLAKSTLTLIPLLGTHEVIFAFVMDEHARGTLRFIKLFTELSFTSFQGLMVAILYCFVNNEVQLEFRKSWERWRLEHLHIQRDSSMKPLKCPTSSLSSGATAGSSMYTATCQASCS

| Structure (SMILES) | HEK293/CRE-LUC/hGLP1R S/N (human GLP1R) | HEK293/CRE-LUC/hGLP1R Relative Potency (% P8 EC50) (human GLP1R) [%] | HEK293/CRE-LUC/hGLP1R Relative Signal:Noise (% P8) (human GLP1R) [%] | EC50 (HEK293/CRE-Luc cells) [nM] | HEK293/CRE-LUC S/N (HEK293/CRE-Luc cells) | Human plasma stability assay T½ ([1]; tested for 1 day (A)) [h] | half-life at 2 µM [1] [h] | Human plasma stability assay T½ ([1]; tested for 2 hrs (B)) [h] |
| --- | --- | --- | --- | --- | --- | --- | --- | --- |
| CCc1cc(OCCCCN)ccc1-c1ccc(C[C@H](NC(=O)[C@H](CC(=O)O)NC(=O)[C@H](CO)NC(=O)[C@@H](NC(=O)[C@](C)(Cc2ccccc2F)NC(=O)[C@@H](NC(=O)CNC(=O)[C@H](Cc2nn[nH]n2)NC(=O)C(C)(C)C(=O)O)[C@@H](C)O)[C@@H](C)O)C(=O)N[C@@H](CCCc2cc(C)cc(C)c2)C(N)=O)cc1 [P3] (X4-[Ala(1H-tetrazol-5-yl)]GT[αMePhe(2-F)]TSD[Bip(2'-Et,4'-O(CH2)4NH2)][Nva(5-(3,5-Me2Ph))]-NH2) | 46.3 | 0.3 | 70.3 | > 200 | 1.2 | >57.81 | > 57.8 |  |
| CCc1cc(OCCCCN)ccc1-c1ccc(C[C@H](NC(=O)[C@H](CC(=O)O)NC(=O)[C@H](CO)NC(=O)[C@@H](NC(=O)[C@](C)(Cc2ccccc2F)NC(=O)[C@@H](NC(=O)CNC(=O)[C@H](Cc2nn[nH]n2)NC(=O)C(C)(C)C(N)=O)[C@@H](C)O)[C@@H](C)O)C(=O)N[C@@H](CCCc2cc(C)cc(C)c2)C(N)=O)cc1 [P4] (X2-[Ala(1H-tetrazol-5-yl)]GT[αMePhe(2-F)]TSD[Bip(2'-Et,4'-O(CH2)4NH2)][Nva(5-(3,5-Me2Ph))]-NH2) | 66.9 | 6.3 | 101.8 | > 200 | 1.6 | >57.81 | > 57.8 |  |
| CCc1cc(OCCCCN)ccc1-c1ccc(C[C@H](NC(=O)[C@H](CC(=O)O)NC(=O)[C@H](CO)NC(=O)[C@@H](NC(=O)[C@](C)(Cc2ccccc2F)NC(=O)[C@@H](NC(=O)CNC(=O)[C@H](Cc2nn[nH]n2)NC(=O)C(C)(C)c2ccn[nH]2)[C@@H](C)O)[C@@H](C)O)C(=O)N[C@@H](CCCc2cc(C)cc(C)c2)C(N)=O)cc1 [P6] (X3-[Ala(1H-tetrazol-5-yl)]GT[αMePhe(2-F)]TSD[Bip(2'-Et,4'-O(CH2)4NH2)][Nva(5-(3,5-Me2Ph))]-NH2) | 60.7 | 0.9 | 92.3 | > 200 | 1.0 | >57.81 | > 57.8 |  |
| CCc1cc(OCCCCN)ccc1-c1ccc(C[C@H](NC(=O)[C@H](CC(=O)O)NC(=O)[C@H](CO)NC(=O)[C@@H](NC(=O)[C@](C)(Cc2ccccc2F)NC(=O)[C@@H](NC(=O)CNC(=O)[C@H](Cc2nn[nH]n2)NC(=O)C(C)(C)C(=O)NCCc2cnc[nH]2)[C@@H](C)O)[C@@H](C)O)C(=O)N[C@@H](CCCc2cc(C)cc(C)c2)C(N)=O)cc1 [P9, (8S,14S,17S,20S,23S,26S)-8-((2H-tetrazol-5-yl)methyl)-26-(((S)-1-(((S)-1-amino-5-(3,5-dimethylphenyl)-1-oxopentan-2-yl)amino)-3-(4′-(4-aminobutoxy)-2′-ethyl-[1,1′-biphenyl]-4-yl)-1-oxopropan-2-yl)carbamoyl)-17-(2-fluorobenzyl)-14,20-bis((R)-1-hydroxyethyl)-23-(hydroxymethyl)-1-(1H-imidazol-5-yl)-5,5,17-trimethyl-4,6,9,12,15,18,21,24-octaoxo-3,7,10,13, 16,19,22,25-octaazaoctacosan-28-oic acid] ({Malonyl(2,2-Me2,histaminyl)}-[Ala(1H-tetrazol-5-yl)]GT[αMePhe(2-F)]TSD[Bip(2'-Et,4'-O(CH2)4NH2)][Nva(5-(3,5-Me2Ph))]-NH2) | 75.2 | 133.8 | 114.3 | > 200 | 1.3 | >57.81 | > 57.8 |  |
| CCc1cc(OCCCCN)ccc1-c1ccc(C[C@H](NC(=O)[C@H](CC(=O)O)NC(=O)[C@H](CO)NC(=O)[C@@H](NC(=O)[C@](C)(Cc2ccccc2F)NC(=O)[C@@H](NC(=O)CNC(=O)[C@H](Cc2nn[nH]n2)NC(=O)[C@H](C)NC(=O)[C@@H](N)Cc2cnc[nH]2)[C@@H](C)O)[C@@H](C)O)C(=O)N[C@@H](CCCc2cc(C)cc(C)c2)C(N)=O)cc1 [P10] (H-HA[Ala(1H-tetrazol-5-yl)]GT[αMePhe(2-F)]TSD[Bip(2'-Et,4'-O(CH2)4NH2)][Nva(5-(3,5-Me2Ph))]-NH2) | 45.1 | 38.0 | 68.6 | > 200 | 1.2 |  | 1.8 | 1.83 |
| CCc1cc(OCCCCN)ccc1-c1ccc(C[C@H](NC(=O)[C@H](CC(=O)O)NC(=O)[C@H](CO)NC(=O)[C@@H](NC(=O)[C@](C)(Cc2ccccc2F)NC(=O)[C@@H](NC(=O)CNC(=O)[C@H](Cc2nn[nH]n2)NC(=O)CCCCCc2cnc[nH]2)[C@@H](C)O)[C@@H](C)O)C(=O)N[C@@H](CCCc2cc(C)cc(C)c2)C(N)=O)cc1 [P11] (X1-[Ala(1H-tetrazol-5-yl)]GT[αMePhe(2-F)]TSD[Bip(2'-Et,4'-O(CH2)4NH2)][Nva(5-(3,5-Me2Ph))]-NH2) | 54.8 | 0.8 | 83.4 | > 200 | 1.1 | >57.81 | > 57.8 |  |
| CCc1cc(OCCCCN)ccc1-c1ccc(C[C@H](NC(=O)[C@H](CC(=O)O)NC(=O)[C@H](CO)NC(=O)[C@@H](NC(=O)[C@](C)(Cc2ccccc2F)NC(=O)[C@@H](NC(=O)CNC(=O)[C@H](Cc2nn[nH]n2)NC(=O)CNC(=O)CCc2c[nH]cn2)[C@@H](C)O)[C@@H](C)O)C(=O)N[C@@H](CCCc2cc(C)cc(C)c2)C(N)=O)cc1 [P12] (Desaminohistidyl-G[Ala(1H-tetrazol-5-yl)]GT[αMePhe(2-F)]TSD[Bip(2'-Et,4'-O(CH2)4NH2)][Nva(5-(3,5-Me2Ph))]-NH2) | 76.4 | 46.5 | 116.2 | > 200 | 1.2 | >57.81 | > 57.8 |  |
| CCc1cc(OCCCCN)ccc1-c1ccc(C[C@H](NC(=O)[C@H](CC(=O)O)NC(=O)[C@H](CO)NC(=O)[C@@H](NC(=O)[C@](C)(Cc2ccccc2F)NC(=O)[C@@H](NC(=O)CNC(=O)[C@H](Cc2nn[nH]n2)NC(=O)[C@@]2(C)CCN(CCc3cnc[nH]3)C2=O)[C@@H](C)O)[C@@H](C)O)C(=O)N[C@@H](CCCc2cc(C)cc(C)c2)C(N)=O)cc1 [P15-R] (X5-[Ala(1H-tetrazol-5-yl)]GT[αMePhe(2-F)]TSD[Bip(2'-Et,4'-O(CH2)4NH2)][Nva(5-(3,5-Me2Ph))]-NH2) | 67.8 | 40.3 | 103.1 | > 200 | 1.1 |  |  |  |
